pEC50, pIC50: −log10 of the molar value.
Tests used:
cSrc = cSrc (Homo sapiens, UniProt P12931); test: c-Src enzyme inhibition (FRET); type: biochemical; details: Table 4a1
Method in brief: (§1)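 Kinase activity is measured on a dual-labelled synthetic peptide by FRET. ATP is supplied as an 800 μM solution for c-Src and a 60 μM solution for Syk. Compound is tested at four added concentrations, 4 to 0.004 μg/mL.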

Syk = Syk (Homo sapiens, UniProt P43405); test: Syk enzyme inhibition (FRET); type: biochemical; details: Table 4a1
Method in brief: as §1

GSK3α = GSK3α (Homo sapiens, UniProt P49840); test: GSK 3α enzyme inhibition (FRET), Method 1; type: biochemical; details: Table 4a1
Method in brief: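 GSK3α was preincubated with test compound for 2 hr at RT, then a FRET peptide substrate and ATP were added for 1 hr. Protease development for 1 hr cleaved only non-phosphorylated peptide, and phosphorylation was read as the coumarin/fluorescein emission ratio. Concentrations given are those of the added solutions: enzyme 500 ng/mL, peptide 8 μM, ATP 40 μM.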

[1] = system: TNFα release, d-U937 cells; test: LPS-induced TNFα release in d-U937 cells; type: cell-based; details: Homo sapiens, dU937; relative to 10 μg/mL BIRB796; Table 4c1; read-out: LPS Induced Release of Cytokine in d-U937 Cells, TNFα REC50
Method in brief: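 U937 cells differentiated with PMA (100 ng/mL, 48–72 hr), pre-treated with compound for 2 hr, then stimulated with E. coli LPS (0.1 μg/mL) for 4 hr. Supernatant cytokine measured by sandwich ELISA; inhibition versus vehicle control, REC50 from concentration-response curve.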

[2] = system: IL-8 release, d-U937 cells; test: LPS-induced IL-8 release in d-U937 cells; type: cell-based; details: Homo sapiens, dU937; Table 4c1; read-out: LPS Induced Release of Cytokine in d-U937 Cells, IL-8 IC50
Method in brief: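 IL-8 release after a 4 hr challenge with LPS (0.1 μg/mL, E. coli 0111:B4) following a 2 hr compound pretreatment. Cells were human U937 monocytes differentiated to macrophage-type with PMA 100 ng/mL for 48–72 hr. Relative 50% effective concentration derived from concentration–response data.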

[3] = system: ICAM-1 expression, BEAS2B cells; test: Poly I:C-induced ICAM-1 expression in BEAS2B cells; type: cell-based; details: Homo sapiens, BEAS-2B; read-out: Poly IC induced ICAM1 in BEAS2B, IC50
Method in brief: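 BEAS2B human bronchial epithelial cells pre-incubated 2 h with compound, then transfected with poly I:C (1 μg/mL) plus Oligofectamine. After 18 h, cell-surface ICAM-1 read by cell-based ELISA (A450–655), normalised to Crystal Violet cell number (A595); inhibition calculated against vehicle control at each concentration.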

d-U937 cells = test: Cell viability: MTT assay; type: cell-based, human; details: 1 μg/mL
Method in brief: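 Differentiated U937 cells exposed to compound at 1 or 10 μg/mL, either 4 h in 5% FCS or 24 h in 10% FCS RPMI1640. MTT then added for 1 h, formazan dissolved in DMSO and read at 550 nm. Viability loss given as % versus 0.5% DMSO vehicle; apparent gains appear negative.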

GSK3α, sequence (P49840 whole entry): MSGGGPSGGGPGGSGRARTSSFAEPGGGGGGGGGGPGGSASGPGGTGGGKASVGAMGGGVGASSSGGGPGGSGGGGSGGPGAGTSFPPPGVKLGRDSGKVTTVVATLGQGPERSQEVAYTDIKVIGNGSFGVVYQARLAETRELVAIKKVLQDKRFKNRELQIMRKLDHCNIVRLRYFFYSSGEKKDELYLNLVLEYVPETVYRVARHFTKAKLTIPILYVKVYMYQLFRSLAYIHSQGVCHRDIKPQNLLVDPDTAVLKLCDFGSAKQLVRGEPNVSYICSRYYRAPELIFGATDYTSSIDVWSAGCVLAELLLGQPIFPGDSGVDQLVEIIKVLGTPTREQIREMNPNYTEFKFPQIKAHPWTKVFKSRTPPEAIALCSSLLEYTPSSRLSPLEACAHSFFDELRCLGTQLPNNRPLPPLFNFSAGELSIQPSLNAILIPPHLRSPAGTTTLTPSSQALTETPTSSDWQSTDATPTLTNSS
cSrc, sequence (P12931 whole entry): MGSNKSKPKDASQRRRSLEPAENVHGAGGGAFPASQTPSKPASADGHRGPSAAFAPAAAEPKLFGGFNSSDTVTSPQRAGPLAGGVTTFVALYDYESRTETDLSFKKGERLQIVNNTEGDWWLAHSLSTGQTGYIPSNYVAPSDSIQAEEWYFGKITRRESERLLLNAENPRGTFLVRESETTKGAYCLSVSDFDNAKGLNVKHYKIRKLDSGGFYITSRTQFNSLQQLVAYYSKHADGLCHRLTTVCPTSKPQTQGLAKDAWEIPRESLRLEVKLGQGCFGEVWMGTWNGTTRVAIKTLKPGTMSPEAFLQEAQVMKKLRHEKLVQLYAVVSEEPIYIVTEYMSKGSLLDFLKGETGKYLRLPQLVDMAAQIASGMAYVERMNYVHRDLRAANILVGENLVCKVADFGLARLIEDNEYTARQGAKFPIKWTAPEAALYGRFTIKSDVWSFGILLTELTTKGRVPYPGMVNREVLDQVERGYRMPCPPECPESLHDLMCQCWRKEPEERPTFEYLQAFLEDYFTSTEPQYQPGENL

| SMILES | pIC50 (cSrc) | pIC50 (Syk) | pIC50 (GSK3α) | pEC50 [1] | pIC50 [2] | pIC50 [3] | Cell viability at time point in d-U937 cells, 4 h (d-U937 cells) | Cell viability at time point in d-U937 cells, 24 h (d-U937 cells) |
| --- | --- | --- | --- | --- | --- | --- | --- | --- |
| COc1cc(C(=O)NCCO)ccc1Nc1nccc(Oc2ccc(NC(=O)Nc3cc(C(C)C)nn3-c3ccc(C)cc3)c3ccccc23)n1 [Example 39, N-(2-hydroxyethyl)-4-((4-((4-(3-(3-isopropyl-1-(p-tolyl)-1H-pyrazol-5-yl)ureido)naphthalen-1-yl)oxy)pyrimidin-2-yl)amino)-3-methoxybenzamide] | 8.10 | 6.89 | < 4.84 | 8.44 | 7.80 | 6.84 | −ve (−ve and +ve indicate that the value is below and above respectively, the no significant effect threshold, defined as 30% inhibition at 1 μg/mL at the time point indicated) | −ve (−ve and +ve indicate that the value is below and above respectively, the no significant effect threshold, defined as 30% inhibition at 1 μg/mL at the time point indicated) |
| COc1cc(C(=O)NCCO)ccc1Nc1nccc(Oc2ccc(NC(=O)Nc3cc(C(C)(C)C)nn3-c3ccc(C)cc3)c3ccccc23)n1 [Example 4, 4-((4-((4-(3-(3-(tert-Butyl)-1-(p-tolyl)-1H-pyrazol-5-yl)ureido)naphthalen-1-yl)oxy)pyrimidin-2-yl)amino)-N-(2-hydroxyethyl)-3-methoxybenzamide] | 7.31 | 6.91 | < 4.84 | 9.15 | 8.18 | 8.34 | −ve (−ve and +ve indicate that the value is below and above respectively, the no significant effect threshold, defined as 30% inhibition at 1 μg/mL at the time point indicated) | −ve (−ve and +ve indicate that the value is below and above respectively, the no significant effect threshold, defined as 30% inhibition at 1 μg/mL at the time point indicated) |
| COCCNC(=O)c1cc(Nc2nccc(Oc3ccc(NC(=O)Nc4cc(C(C)(C)C)nn4-c4ccc(C)cc4)c4ccccc34)n2)cc(OC)c1 [Example 67, 3-((4-((4-(3-(3-(tert-butyl)-1-(p-tolyl)-1H-pyrazol-5-yl)ureido)naphthalen-1-yl)oxy)pyrimidin-2-yl)amino)-5-methoxy-N-(2-methoxyethyl)benzamide] | 8.40 | 7.40 | 6.34 | 10.00 | 9.00 | 6.85 | −ve (−ve and +ve indicate that the value is below and above respectively, the no significant effect threshold, defined as 30% inhibition at 1 μg/mL at the time point indicated) | −ve (−ve and +ve indicate that the value is below and above respectively, the no significant effect threshold, defined as 30% inhibition at 1 μg/mL at the time point indicated) |
| COc1cc(Nc2nccc(Oc3ccc(NC(=O)Nc4cc(C(C)C)nn4-c4ccc(C)c(C)c4)c4ccccc34)n2)cc(C(=O)NCCN2CCOCC2)c1 [Example 56, 3-((4-((4-(3-(1-(3,4-dimethylphenyl)-3-isopropyl-1H-pyrazol-5-yl)ureido)naphthalen-1-yl)oxy)pyrimidin-2-yl)amino)-5-methoxy-N-(2-morpholinoethyl)benzamide] | 8.30 | 7.92 | < 4.89 | 8.85 | 8.77 | 7.07 | −ve (−ve and +ve indicate that the value is below and above respectively, the no significant effect threshold, defined as 30% inhibition at 1 μg/mL at the time point indicated) | −ve (−ve and +ve indicate that the value is below and above respectively, the no significant effect threshold, defined as 30% inhibition at 1 μg/mL at the time point indicated) |

Now from value to compound, other results behind:

| pIC50 (cSrc) | pIC50 (Syk) | pIC50 (GSK3α) | pEC50 [1] | pIC50 [2] | SMILES | pIC50 [3] | Cell viability at time point in d-U937 cells, 4 h (d-U937 cells) | Cell viability at time point in d-U937 cells, 24 h (d-U937 cells) |
| --- | --- | --- | --- | --- | --- | --- | --- | --- |
| 8.70 | 8.30 | 6.20 | 9.70 | 8.72 | COc1ccc(-n2nc(C(C)C)cc2NC(=O)Nc2ccc(Oc3ccnc(Nc4cc(OC)cc(C(=O)NCCN(C)C)c4)n3)c3ccccc23)cc1 [Example 6] | 8.92 | −ve (−ve and +ve indicate that the value is below and above respectively, the no significant effect threshold, defined as 30% inhibition at 1 μg/mL at the time point indicated) | −ve (−ve and +ve indicate that the value is below and above respectively, the no significant effect threshold, defined as 30% inhibition at 1 μg/mL at the time point indicated) |
| 8.30 | 7.92 | 5.55 | 9.10 | 8.85 | COc1ccc(-n2nc(C(C)C)cc2NC(=O)Nc2ccc(Oc3ccnc(Nc4cc(C(=O)NCCN5CCOCC5)cc(C(F)(F)F)c4)n3)c3ccccc23)cc1 [Example 47, 3-((4-((4-(3-(3-isopropyl-1-(4-methoxyphenyl)-1H-pyrazol-5-yl)ureido)naphthalen-1-yl)oxy)pyrimidin-2-yl)amino)-N-(2-morpholinoethyl)-5-(trifluoromethyl)benzamide] | 8.44 | −ve (−ve and +ve indicate that the value is below and above respectively, the no significant effect threshold, defined as 30% inhibition at 1 μg/mL at the time point indicated) | −ve (−ve and +ve indicate that the value is below and above respectively, the no significant effect threshold, defined as 30% inhibition at 1 μg/mL at the time point indicated) |
| 8.05 | 5.86 | 5.85 | 8.89 | 8.77 | CNC(=O)c1cccc(Nc2nccc(Oc3ccc(NC(=O)Nc4cc(C(C)(C)C)nn4-c4ccc(C)cc4)c4ccccc34)n2)c1 [Example 16, 3-((4-((4-(3-(3-(tert-butyl)-1-(p-tolyl)-1H-pyrazol-5-yl)ureido)naphthalen-1-yl)oxy)pyrimidin-2-yl)amino)-N-methylbenzamide] | 8.72 | −ve (−ve and +ve indicate that the value is below and above respectively, the no significant effect threshold, defined as 30% inhibition at 1 μg/mL at the time point indicated) | −ve (−ve and +ve indicate that the value is below and above respectively, the no significant effect threshold, defined as 30% inhibition at 1 μg/mL at the time point indicated) |
| 8.05 | 7.49 | 5.16 | 8.96 | 8.70 | COc1ccc(-n2nc(C(C)C)cc2NC(=O)Nc2ccc(Oc3ccnc(Nc4cc(Cl)cc(C(=O)NCCN5CCOCC5)c4)n3)c3ccccc23)cc1 [Example 61, 3-chloro-5-((4-((4-(3-(3-isopropyl-1-(4-methoxyphenyl)-1H-pyrazol-5-yl)ureido)naphthalen-1-yl)oxy)pyrimidin-2-yl)amino)-N-(2-morpholinoethyl)benzamide] | 6.89 | −ve (−ve and +ve indicate that the value is below and above respectively, the no significant effect threshold, defined as 30% inhibition at 1 μg/mL at the time point indicated) | −ve (−ve and +ve indicate that the value is below and above respectively, the no significant effect threshold, defined as 30% inhibition at 1 μg/mL at the time point indicated) |
| 9.00 | 7.85 | 6.68 | 8.85 | 9.52 | Cc1csc(-n2nc(C(C)(C)C)cc2NC(=O)Nc2ccc(Oc3ccnc(Nc4cccc(C(=O)NCCN5CCOCC5)c4)n3)c3ccccc23)c1 [Example 24, 3-((4-((4-(3-(3-(tert-butyl)-1-(4-methylthiophen-2-yl)-1H-pyrazol-5-yl)ureido)naphthalen-1-yl)oxy)pyrimidin-2-yl)amino)-N-(2-morpholinoethyl)benzamide] | 9.00 | −ve (−ve and +ve indicate that the value is below and above respectively, the no significant effect threshold, defined as 30% inhibition at 1 μg/mL at the time point indicated) | −ve (−ve and +ve indicate that the value is below and above respectively, the no significant effect threshold, defined as 30% inhibition at 1 μg/mL at the time point indicated) |
